Values quoted from earlier work, collected in patent US7294691B1, “Soluble secreted α2δ-2calcium channel subunit polypeptide” (Warner Lambert Company, priority 2000, dated 2007).

System: [^3H]gabapentin binding site
Conditions: saturation binding in the presence of L-leucine; reduces [^3H]gabapentin binding affinity

interaction with the [^3H]gabapentin binding site: competitive interaction
SMILES: CC(C)C[C@H](N)C(=O)O [L-Leucine]
